# System: Gram-negative bacteria
# Experiment: MIC and permeabilization measurements, strain not stated (Table 14, Fig. 5)
# Conditions: in words
compound,measurement,value
C[C@H](CCCO)[C@H]1CC[C@H]2[C@@H]3[C@H](NC(=O)CCCCCN)C[C@@H]4C[C@H](NC(=O)CCCCCN)CC[C@]4(C)[C@H]3C[C@H](NC(=O)CCCCCN)[C@]12C [Compound 211],activity as a permeabilizer,less active than 209c as a permeabilizer
